# In US11332499B2, “Cyclic peptides and methods of use thereof” (Regents of the University of Minnesota, priority 2018, dated 2022):
# “Also recorded” adds a separate entry of the source. Bridge positions count the residues as written; N and C are the ends. Square brackets hold non-standard residues; d marks the D form. Dap = NC[C@H](N)C(=O)O
# B1: mASP: recombinant mouse agouti-signaling protein (protein, UniProt Q03288 23-131, looked up)
# Agouti-signaling protein: HLALEETLGDDRSLRSNSSMNSLDFSSVSIVALNKKSKKISRKEAEKRKRSSKKKASMKKVARPPPPSPCVATRDSCKPPAPACCDPCASCQCRFFGSACTCRVLNPNC
# How the values were obtained:
# mMC1R [1] = target: T1, mMC1R (Mus musculus, UniProt Q01727); assay: AlphaScreen cAMP assay, agonist activity, HEK293 cells stably expressing mMC1R; type: cell-based; settings: Table 2; at 100 μM, relative to NDP-MSH
# T1 construct: expressed in transfected cells
# T1 sequence (Q01727 whole entry): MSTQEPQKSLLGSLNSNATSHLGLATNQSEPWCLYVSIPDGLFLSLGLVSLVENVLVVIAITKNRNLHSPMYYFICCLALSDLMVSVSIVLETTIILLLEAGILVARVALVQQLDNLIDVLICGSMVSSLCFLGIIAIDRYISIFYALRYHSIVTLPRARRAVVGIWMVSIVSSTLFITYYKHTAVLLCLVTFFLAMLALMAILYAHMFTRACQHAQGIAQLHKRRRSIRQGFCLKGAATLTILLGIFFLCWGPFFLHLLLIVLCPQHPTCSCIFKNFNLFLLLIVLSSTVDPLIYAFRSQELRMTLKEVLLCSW
# mMC3R [2] = target: T2, mMC3R (Mus musculus, UniProt P33033); assay: AlphaScreen cAMP assay, agonist activity, HEK293 cells stably expressing mMC3R; type: cell-based; settings: Table 2; at 100 μM
# T2 construct: expressed in transfected cells
# T2 sequence (P33033 whole entry): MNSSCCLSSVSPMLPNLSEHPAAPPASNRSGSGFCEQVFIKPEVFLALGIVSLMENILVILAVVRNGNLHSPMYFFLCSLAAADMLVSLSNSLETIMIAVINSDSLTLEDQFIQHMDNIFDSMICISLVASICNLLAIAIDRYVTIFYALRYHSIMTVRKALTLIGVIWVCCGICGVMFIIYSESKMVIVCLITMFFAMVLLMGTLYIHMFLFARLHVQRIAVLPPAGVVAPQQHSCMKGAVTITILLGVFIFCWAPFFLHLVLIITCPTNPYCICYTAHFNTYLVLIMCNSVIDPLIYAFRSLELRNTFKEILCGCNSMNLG
# mMC4R [3] = target: T3, mMC4R (Mus musculus, UniProt P56450); assay: AlphaScreen cAMP assay, agonist activity, HEK293 cells stably expressing mMC4R; type: cell-based; design: expressed in transfected cells; settings: Table 2; at 100 μM
# T3 sequence (P56450 whole entry): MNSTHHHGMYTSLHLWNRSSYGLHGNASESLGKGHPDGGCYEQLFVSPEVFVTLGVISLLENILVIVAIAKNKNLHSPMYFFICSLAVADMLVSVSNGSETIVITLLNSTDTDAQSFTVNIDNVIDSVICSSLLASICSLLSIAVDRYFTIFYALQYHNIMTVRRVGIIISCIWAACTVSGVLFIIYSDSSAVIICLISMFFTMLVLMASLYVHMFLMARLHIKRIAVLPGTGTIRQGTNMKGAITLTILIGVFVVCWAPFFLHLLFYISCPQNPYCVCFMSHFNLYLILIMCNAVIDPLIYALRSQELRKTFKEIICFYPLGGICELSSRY
# rats = settings: ICV administration into rats; cited from earlier work
# MC1R = MC1R (Mus musculus, UniProt Q01727); settings: previously reported; read-out: MC1R agonist potency; cited from earlier work
# Chain of MC1R (Q01727 whole entry): as the sequence (Q01727 whole entry) above
# hMC4R-Kir7.1(M125R) = target: T4, hMC4R-Kir7.1(M125R) (Homo sapiens, UniProt P32245); assay: Kir7.1 thallium flux assay, HEK293 cells expressing human MC4R and Kir7.1 (M125R); type: cell-based; settings: for fold selective for Kir7.1 signaling over cAMP antagonism / fold selective for cAMP over Kir7.1 signaling: antagonist Ki / Kir7.1 apparent potency
# T4 construct: expressed in transfected cells; Kir7.1 tetracycline-induced)
# T4 sequence (P32245 whole entry, stated change not applied): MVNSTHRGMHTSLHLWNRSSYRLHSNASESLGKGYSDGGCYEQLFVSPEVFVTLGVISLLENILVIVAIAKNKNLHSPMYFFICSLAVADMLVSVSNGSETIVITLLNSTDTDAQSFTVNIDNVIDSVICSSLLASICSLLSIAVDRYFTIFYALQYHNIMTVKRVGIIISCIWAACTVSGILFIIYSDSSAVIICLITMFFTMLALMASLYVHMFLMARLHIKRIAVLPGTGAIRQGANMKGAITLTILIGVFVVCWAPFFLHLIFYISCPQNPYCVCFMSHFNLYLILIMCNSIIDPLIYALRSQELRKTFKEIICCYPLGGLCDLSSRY
# Description: In this assay, the Kir7.1 (M125R) variant was used since it previously was reported to result in higher unitary conductance compared to the native channel.^39
# The compound with the highest apparent potency.
# HEK293 cells stably expressing the human MC4R and Kir7.1 (M125R) were grown in MEM medium with 10% FBS without antibiotics, suspended in medium plus 1 μg ml^−1 tetracycline (to induce expression of the transfected tet-sensitive Kir7.1 gene) and plated (20 μL) in 384-well poly-D-lysine coated optical bottom plates (BD Biosciences) at 20,000 cells per well. Plates were incubated overnight for 16-24 h in the cell incubator at 37° C., 5% CO2. […] Plates were incubated in the dark for 1 h at room temperature and dye solution was removed. Upon addition of 20 μL 1×HBSS buffer, a liquid handler added 20 μL of ligand solution to entire plate simultaneously (ligands were prepared by serial dilution in 1×HBSS, 20 mM HEPES, 0.1% BSA, pH 7.3). Plates were incubated in the dark for 20 min (unless otherwise indicated). After a baseline reading on a Thallos Plate-reader (Vanderbilt, Tenn.), 10 μL of a thallium solution (1×HBSS, 20 mM HEPES, 2 mM Tl, pH 7.3) was loaded and fluorescence generated by thallium influx was recorded for 10 min. The signal was normalized to an untreated control.
# free-feeding mice = assay: Mouse feeding study, intracerebroventricular (ICV) administration; type: in vivo
# Description: Cannulation surgeries were performed to place a cannula into the lateral cerebral ventricle as previously reported.^23,67,76 Mice were anesthetized with a mixture of xylazine (5 mg/kg) and ketamine (100 mg/kg) administered intraperitoneal (IP) and placed in a stereotaxic apparatus (David Kopf Instruments) that was used to guide the cannula placement. […] After surgery, flunixin meglumine (FluMegluine, Clipper Distribution Company) and 0.5 mL of 0.9% saline (Hospira, Lake Forrest, Ill.) was administered subcutaneously to aid in recovery. Mice recovered for at least 7 days prior to cannula placement validation. Mice were housed individually after surgery and for the remainder of the experiments.
# Cannula placement was validated by the feeding response after ICV administration of 2.5 μg of human (h)PYY3-36 (cat # H8585; Bachem), as described previously.^23,67,75-76 Mice received saline treatment and hPYY treatment on different days separated by a washout period of at least 3 days in a crossover design nocturnal feeding paradigm. In this paradigm, compound or saline is administered 2 h prior to lights out (t=0 h) and body weight and food are measured. Mice have free access to food and water. At 4 h post-administration, food is measured. A mouse with a validated properly placed cannula consumed at least 0.8 g more food after hPYY administration compared to saline administration at 4 h.
# All ICV and IT administration experiments utilized a crossover design with free access to standard chow. Mice were housed in RAR supplied conventional mouse cages. […] Matching vehicle controls (3% v/v DMSO in saline and 20% solutol) were prepared in parallel. The day of compound administration, an aliquot of stock solution was diluted with saline to the desired experimental dose in 3 μL, in parallel with vehicle control. For ICV administration, the desired experimental dose (3 μL) or vehicle control (3 μL) was delivered 2 h before lights out (t=0 h). For IT administration, the desired experimental dose (5 μL) or vehicle control (5 μL) was delivered 2 h before lights out (t=0 h). Food intake and mouse weight was manually measured at t=0, 2, 4, 6, 8, 24, 48, and 72 h post-injection. Mice recovered 6-7 days between treatments to reestablish pretreatment body weight and feeding patterns.
# MC4R [4] = target: T5, MC4R (Homo sapiens, UniProt P32245); assay: AlphaScreen cAMP assay, antagonist activity (Schild, NDP-MSH) at hMC4R; type: cell-based; design: expressed in transfected cells; settings: Example 5
# T5 sequence (P32245 whole entry): as the sequence (P32245 whole entry, stated change not applied) above
# Description: (§1) Briefly, cells 70-90% confluent were dislodged with Versene (Gibco®) at 37° C. and plated 10,000 cells/well in a 384-well plate (Optiplate™) with 10 μL freshly prepared stimulation buffer (1×HBSS, 5 mM HEPES, 0.5 mM IBMX, 0.1% BSA, pH=7.4) with 0.5 μg anti-cAMP acceptor beads per well.
# (§2) Following stimulation, streptavidin donor beads (0.5 μg) and biotinylated-cAMP (0.62 μmol) were added to the wells in a subdued light environment with 10 μL lysis buffer (5 mM HEPES, 0.3% Tween-20, 0.1% BSA, pH=7.4) and the plates were incubated in the dark at room temperature for an additional 2 hr.
# (§3) The EC50 values represent the mean of duplicate replicates performed in at least three independent experiments. The EC50 estimates and associated standard errors (SEM) were determined by fitting the data to a nonlinear least-squares analysis using the PRISM program (v4.0, GraphPad Inc.). The ligands were assayed as TFA salts and not corrected for peptide context.
# MC4R [5] = target: T5, MC4R; assay: AlphaScreen cAMP assay, inverse agonist activity at hMC4R; type: cell-based; design: expressed in transfected cells; settings: for hMC4R Inverse Agonist, decrease from basal signal / EC50: Table 10; for fold decreased inverse agonist apparent potency relative to AGRP: wildtype hMC4R; for EC50: apparent potency, none = no inverse agonist activity
# Description: The apparent potencies were determined from the inflection point of the normalized sigmoidal dose-response curves.
# as §1, §2, §3
# MC4R [6] = target: T5, MC4R; assay: Competitive radioligand binding, displacement of 125I-NDP-MSH, HEK293 cells expressing hMC4R; design: expressed in transfected cells; settings: for fold decreased binding affinity compared to NDP-MSH: displacement of 125I-NDP-MSH; for IC50: Table 10
# MC4R [7] = target: T5, MC4R; assay: Competitive radioligand binding, displacement of 125I-AGRP, HEK293 cells expressing hMC4R; design: expressed in transfected cells; settings: for fold decreased binding affinity compared to AGRP: displacement of 125I-AGRP; for IC50: Table 10
# Description: Competitive binding affinity experiments were performed on HEK-293 cells stably expressing the wildtype hMC4R. […] The assay media was carefully aspirated and cells were washed once with assay buffer. Cell were lysed with 500 μL 0.1 M NaOH and 500 μL 1% Triton X-100 for a minimum of 10 min. […] All experiments were performed with duplicate data points and in at least two independent experimental replicates. […] Concentration-response curves and IC50 values were generated and analyzed by the PRISM program (version 4.0. GraphPad Inc.) by a nonlinear regression method. The standard error of the mean (SEM) was derived from the IC50 values from at least two independent experimental replicates.
# mMC4R [8] = target: T3, mMC4R; design: expressed in transfected cells; settings: previous SAR study (ref 52); cited from earlier work
# mMC5R = target: T6, mMC5R (Mus musculus, UniProt P41149); assay: AlphaScreen cAMP assay, agonist and inverse agonist activity, HEK293 cells stably expressing mMC5R; type: cell-based; settings: Table 6; apparent potency at inflection point
# T6 construct: expressed in transfected cells
# T6 sequence (P41149 whole entry): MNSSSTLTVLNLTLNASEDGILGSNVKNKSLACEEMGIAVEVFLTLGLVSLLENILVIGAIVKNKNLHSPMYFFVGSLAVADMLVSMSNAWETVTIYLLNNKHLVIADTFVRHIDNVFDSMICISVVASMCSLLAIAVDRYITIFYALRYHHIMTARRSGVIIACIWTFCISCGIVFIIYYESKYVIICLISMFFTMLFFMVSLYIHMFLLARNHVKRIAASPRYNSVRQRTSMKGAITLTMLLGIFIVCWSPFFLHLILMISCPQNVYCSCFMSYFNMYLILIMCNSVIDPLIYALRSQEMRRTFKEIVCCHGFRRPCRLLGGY
# male WT mice = assay: Mouse feeding study, intrathecal (IT) injection; type: in vivo; settings: 2 nmol IT
# Description: This study was conducted in accordance with the guidelines set up by the Institutional Animal Care and Use Committee (IACUC) at the University of Minnesota. Male Wildtype (WT) mice (mixed 129/Sv×C57BL/6J background) derived from an in house breeding colony were used throughout this experiment as previously reported in literature.^14,23,61,63,65 Each mouse was individually housed in standard polycarbonate conventional cages provided by the University of Minnesota's Research Animal Resources (RAR). Mice were singly housed in order to adequately measure food intake of individual mice during experiments. At the beginning of this experiment, mice were age-matched at 24 weeks old. Research lab staff performed weekly cage changes. […] Mice were monitored daily to assess health.
# All mouse feeding experiments were designed following a crossover, non-fasting (nocturnal) paradigm. […] Intrathecal injections were performed as previously described.^63,66-68 Mouse body weight and food weight was recorded in 2, 4, 6, 8, 24, 48 and 72 hours post-injection following a single IT injection. […]
# Primary dependent variables were: (i) food intake; and (ii) body weight. Food intake and body weight was analyzed a two-factor within-subject Analysis of Variance (ANOVA) with between session variables of compound and the within-subject variable of time. […]
# mMC1R [9] = target: T1, mMC1R; settings: displacement of radiolabeled NDP-MSH; read-out: Ki app, mMC1R; cited from earlier work
# mMC3R [10] = target: T2, mMC3R; settings: displacement of radiolabeled NDP-MSH; read-out: Ki app, mMC3R; cited from earlier work
# mMC4R [11] = target: T3, mMC4R; design: expressed in transfected cells; settings: displacement of radiolabeled NDP-MSH; read-out: Ki app, mMC4R; cited from earlier work
molecule,measurement,setting,value
15 (cyclo(PRFFWAF[dP]); SMILES C[C@@H]1NC(=O)[C@H](Cc2c[nH]c3ccccc23)NC(=O)[C@H](Cc2ccccc2)NC(=O)[C@H](Cc2ccccc2)NC(=O)[C@H](CCCNC(=N)N)NC(=O)[C@@H]2CCCN2C(=O)[C@H]2CCCN2C(=O)[C@H](Cc2ccccc2)NC1=O) [Peptide 15],mMC1R percent maximal stimulatory response,mMC1R [1],80% @ 100 μM
same,mMC3R percent maximal stimulatory response,mMC3R [2],40% @
same,mMC4R percent maximal stimulatory response,mMC4R [3],50% @
"AGRP(83-132): hypothesized biologically active form of agouti-related protein (SSRRCVRLHESCLGQQVPCCDPCATCYCRFFNAFCYCRKLGTAMNPCSRT; UniProt O00253 83-132, looked up, fragment)",increase of 24 h food intake above saline,rats,77%
H-Tyr-c[Dap-Arg-Phe-Phe-Asn-Ala-Phe-Asp]-Tyr-NH2 (H-Y[Dap]RFFNAFDY-NH2; lactam 2-9),EC50,MC1R,28100 nM
c[Pro-Arg-Phe-Phe-Abu-Ala-Phe-DPro] [Peptide 4 (Example 1)],fold decreased thallium flux apparent potency compared to MDE3-119-10c,hMC4R-Kir7.1(M125R),5 fold
same,fold selective for Kir7.1 signaling over cAMP antagonism,hMC4R-Kir7.1(M125R),approximately 50 fold
same,food intake after ICV administration,free-feeding mice; 5 nmol dose,"observed to decrease food intake, a trend that did not achieve statistical significance"
same,food intake after ICV administration,free-feeding mice; 2 and 5 nmol doses,no significant food increase was observed by 8 h
same,fold decreased antagonist potency relative to MDE3-119-8c at the hMC4R,MC4R [4],19 fold
same,"hMC4R Inverse Agonist, decrease from basal signal",MC4R [5],(-15%)
same,fold decreased inverse agonist apparent potency relative to AGRP,MC4R [5],9 fold
same,fold decreased binding affinity compared to NDP-MSH,MC4R [6],20 fold
same,fold decreased binding affinity compared to AGRP,MC4R [7],16 fold
same,fold decreased antagonist potency compared to the Dap substitution at the mMC4R,mMC4R [8],25 fold
c[Pro-Arg-Phe-Phe-Ala-Ala-Phe-DPro] [Peptide 3 (Example 1)],"hMC4R Inverse Agonist, decrease from basal signal",MC4R [5],(-35%)
c[Pro-Arg-Phe-Phe-Asn-Ala-Cha-DPro] [Compound 10 (Example 3)],EC50,mMC5R,780 nM
c[Pro-Arg-Phe-Phe-Asn-Ala-Nle-DPro] [Compound 7 (Example 3)],mouse body weight vs vehicle control,male WT mice,treated animals weighing more than control animals
same,cumulative food intake vs vehicle,"male WT mice; single injection, listed as KAF2039-7",statistically significant increase in food intake at 2 and 6 hours post-injection; also recorded: prolonged trend of increased food intake up to 72 hours post-injection
c[Pro-Arg-Phe-Phe-Asn-Ala-Phe-DPro] [Peptide 1 (Example 1)],"hMC4R Inverse Agonist, decrease from basal signal",MC4R [5],(-30%)
c[Pro-Arg-Phe-Phe-Asn-Ala-Trp-DPro] [Compound 8 (Example 3)],EC50,mMC5R,150 nM
c[Pro-Arg-Phe-Phe-Asn-Ala-hPhe-DPro] [Compound 11 (Example 3)],EC50,mMC5R,290 nM
c[Pro-Arg-Phe-Phe-Asp-Ala-Phe-DPro] [Peptide 7 (Example 1)],fold decreased thallium flux apparent potency compared to MDE3-119-10c,hMC4R-Kir7.1(M125R),2 fold
same,fold selective for Kir7.1 signaling over cAMP antagonism,hMC4R-Kir7.1(M125R),over 500 fold
same,fold decreased antagonist potency relative to MDE3-119-8c at the hMC4R,MC4R [4],90 fold
same,"hMC4R Inverse Agonist, decrease from basal signal",MC4R [5],(-35%)
same,EC50,MC4R [5],2000 nM
same,fold decreased inverse agonist apparent potency relative to AGRP,MC4R [5],830 fold
same,IC50,MC4R [6],3600 nM
same,fold decreased binding affinity compared to NDP-MSH,MC4R [6],130 fold
same,IC50,MC4R [7],1300 nM
same,fold decreased binding affinity compared to AGRP,MC4R [7],100 fold
c[Pro-Arg-Phe-Phe-DDap-Ala-Phe-DPro] [Peptide 9 (Example 1)],fold decreased thallium flux apparent potency compared to MDE3-119-10c,hMC4R-Kir7.1(M125R),80 fold
same,fold selective for cAMP over Kir7.1 signaling,hMC4R-Kir7.1(M125R),4 fold
same,"hMC4R Inverse Agonist, decrease from basal signal",MC4R [5],(-30%)
c[Pro-Arg-Phe-Phe-Dap-Ala-Phe-DPro] [Peptide 2 (Example 1)],fold decreased thallium flux apparent potency compared to MDE3-119-10c,hMC4R-Kir7.1(M125R),28 fold
same,fold selective for cAMP over Kir7.1 signaling,hMC4R-Kir7.1(M125R),2 fold
same,food intake after ICV administration vs vehicle,free-feeding mice; 3 nmol dose,"significant increase in food intake at 4, 6, and 8 h"
same,food intake after ICV administration,"free-feeding mice; free feeding male mice, doses up to 3 nmol, listed as MDE3-119-8c",dose-dependent increase in food intake was observed for the first 8 h post-injection; also recorded: did not significantly alter cumulative food intake after 24 h
same,"hMC4R Inverse Agonist, decrease from basal signal",MC4R [5],(-50%)
c[Pro-Arg-Phe-Phe-Glu-Ala-Phe-DPro] [Peptide 8 (Example 1)],fold decreased antagonist potency relative to MDE3-119-8c at the hMC4R,MC4R [4],70 fold
same,"hMC4R Inverse Agonist, decrease from basal signal",MC4R [5],(-35%)
same,EC50,MC4R [5],1100 nM
same,fold decreased inverse agonist apparent potency relative to AGRP,MC4R [5],450 fold
same,IC50,MC4R [6],2500 nM
same,fold decreased binding affinity compared to NDP-MSH,MC4R [6],90 fold
same,IC50,MC4R [7],1400 nM
same,fold decreased binding affinity compared to AGRP,MC4R [7],110 fold
c[Pro-Arg-Phe-Phe-His-Ala-Phe-DPro] [Peptide 10 (Example 1)],"hMC4R Inverse Agonist, decrease from basal signal",MC4R [5],(-30%)
same,fold decreased binding affinity compared to NDP-MSH,MC4R [6],5 fold
same,fold decreased binding affinity compared to AGRP,MC4R [7],4 fold
c[Pro-Arg-Phe-Phe-Ser-Ala-Phe-DPro] [Peptide 5 (Example 1)],"hMC4R Inverse Agonist, decrease from basal signal",MC4R [5],(-25%)
same,EC50,MC4R [5],16 ± 4 nM
B1,Ki,mMC1R [9],2.6 nM
same,Ki,mMC3R [10],190 nM
same,Ki,mMC4R [11],54 nM
